Tests used:
Assay in all cases: relative viability (nuclei count vs DMSO), 5 days (fraction); higher = more cells survive
Metformin = compound: CN(C)C(=N)NC(=N)N [Metformin]
Procedure, shortened: (§1)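 Acceptance criteria were a control CV below 25% and at least one doubling per plate. Lung cancer cell lines in 1536-well plates got five library-drug doses (not always all listed) √10 apart by pinning and were left 5 days with no medium change. Viability divides treated-well nuclei by vehicle-well nuclei and is the median across plates. Nuclei were counted by MetaXpress from 4× Hoechst images.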

Apatinib = compound: N#CC1(c2ccc(NC(=O)c3cccnc3NCc3ccncc3)cc2)CCCC1 [Apatinib]
Procedure, shortened: as §1

Metformin + Alpelisib = compound: CN(C)C(=N)NC(=N)N [Metformin] + Cc1nc(NC(=O)N2CCC[C@H]2C(N)=O)sc1-c1ccnc(C(C)(C)C(F)(F)F)c1 [Alpelisib] (partner 2 µM)
Procedure, shortened: (§2)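 Lung cancer cell lines in 1536-well plates were dosed by pin tool the day after seeding, either with one drug alone or with a fixed anchor-drug dose plus five library-drug doses (not always all listed) in √10 steps. After 5 days, cells were fixed and their nuclei stained in one step (final 0.05% Triton X-100, 1% formaldehyde, 1 ug/ml Hoechst), then counted on 4× images. Relative viability is the nuclei count in treated wells divided by that in vehicle wells. Values are medians of duplicate plates.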

Apatinib + Pemetrexed = compound: N#CC1(c2ccc(NC(=O)c3cccnc3NCc3ccncc3)cc2)CCCC1 [Apatinib] + Nc1nc2[nH]cc(CCc3ccc(C(=O)N[C@@H](CCC(=O)O)C(=O)O)cc3)c2c(=O)[nH]1 [Pemetrexed] (partner 0.2 µM)
Procedure, shortened: as §2

Cell Line	relative viability (Metformin; 10 µM)	relative viability (Metformin; 31.62 µM)	relative viability (Metformin; 100 µM)	relative viability (Metformin; 316.23 µM)	relative viability (Metformin; 1000 µM)	relative viability (Apatinib; 0.08 µM)	relative viability (Apatinib; 0.253 µM)	relative viability (Apatinib; 0.8 µM)	relative viability (Apatinib; 2.53 µM)	relative viability (Apatinib; 8 µM)	relative viability (Metformin + Alpelisib; first compound 10 µM)	relative viability (Metformin + Alpelisib; first compound 31.62 µM)	relative viability (Metformin + Alpelisib; first compound 100 µM)	relative viability (Metformin + Alpelisib; first compound 316.23 µM)	relative viability (Metformin + Alpelisib; first compound 1000 µM)	relative viability (Apatinib + Pemetrexed; first compound 0.08 µM)	relative viability (Apatinib + Pemetrexed; first compound 0.253 µM)	relative viability (Apatinib + Pemetrexed; first compound 0.8 µM)	relative viability (Apatinib + Pemetrexed; first compound 2.53 µM)	relative viability (Apatinib + Pemetrexed; first compound 8 µM)
NCI-H2085	0.977	0.939	0.956	0.977	0.991	0.986	0.979	0.953	0.92	0.971	0.956	0.955	0.944	0.903	0.985	0.949	0.777	0.876	0.823	0.782
NCI-H2087	0.79	0.965	0.944	0.813	1.01	1.05	1.03	1.22	0.788	0.814	1.09	0.858	1.05	0.982	0.963	0.657	0.682	0.65	0.619	0.758
NCI-H2126	0.905	0.992	0.981	0.932	1.03	0.975	0.904	0.969	0.918	1.02	0.695	0.752	0.755	0.716	0.755	0.741	0.674	0.736	0.671	0.641
NCI-H2170	0.787	0.882	0.907	0.957	1.01	0.981	1.01	0.909	0.89	0.886	0.748	0.792	0.819	0.806	0.805	0.288	0.275	0.262	0.224	0.251
NCI-H2228	0.913	1.08	0.803	0.907	1.22	1.13	1.08	0.993	0.867	0.846	0.917	0.85	–	0.542	0.898	0.324	0.312	0.356	0.208	0.192
NCI-H2347	0.918	1.05	0.969	0.944	1.1	1.03	0.964	1.03	0.858	0.933	0.771	0.968	1.09	0.961	1.01	0.477	0.404	0.449	0.409	0.409
NCI-H2405	0.756	1.04	0.91	0.971	0.931	0.954	1.04	1.07	0.909	0.955	0.873	0.971	0.852	0.453	0.373	1.15	1.1	1.08	0.898	0.867
NCI-H3122	0.817	0.939	0.891	0.819	0.872	1	0.988	0.98	0.969	1.03	0.524	0.598	0.649	0.625	0.668	0.212	0.192	0.199	0.202	0.188
PC-3 [JPC-3]	0.898	0.986	1.01	0.987	1.02	1.06	0.983	0.915	0.955	0.985	0.92	0.971	1.03	0.949	0.965	–	1.05	1.05	0.726	0.807
PC-14	1.01	1.09	0.997	0.971	0.944	1.03	1.05	0.829	0.968	0.956	0.829	0.886	0.873	0.975	0.893	0.142	0.133	0.124	0.0984	0.0405
RERF-LC-KJ	0.817	0.976	0.888	0.786	0.926	1.03	0.978	0.933	0.847	0.802	0.702	0.746	0.788	0.619	0.735	0.493	0.466	0.381	0.451	0.327
SK-LU-1	0.997	0.976	0.967	0.901	1.01	1.09	1.08	0.992	0.949	0.931	0.916	0.934	0.829	0.948	1.07	1.09	0.995	0.918	0.544	0.32
SK-MES-1	0.9	0.875	0.952	0.826	0.884	1.02	1.06	0.978	0.933	0.884	0.814	0.802	0.732	0.822	0.909	0.976	0.915	0.937	0.757	0.568
SW 1573	1.13	1.1	1.01	0.843	0.864	1.08	1.12	0.941	0.839	0.872	0.853	0.82	0.795	0.8	0.797	0.87	0.854	0.806	0.708	0.394
UMC-11	0.961	1.02	1.06	0.96	0.992	1.06	0.866	0.942	0.899	0.885	1.06	0.992	1.03	0.988	0.971	0.783	0.771	0.716	0.663	0.433

From the supplement of paper PMC10307832
